Test results from PubChem BioAssay AID192 (DTP/NCI, 2004).
“And” between values parts separate entries of the source, which are not always exact repeats. Identical values can stand only once. Toxic doses and inconclusive results are not listed.

System: BDF1 mice, B16 melanoma ip, median survival T/C
Experiment: NCI In Vivo Anticancer Drug Screen. Data for tumor model B16 Melanoma (intraperitoneal) in B6D2F1 (BDF1) mice
Conditions: endpoint: median survival time, higher = longer survival
Procedure, shortened: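 Read-out: survival or tumor size, given as treated/control ratio. Controls received vehicle only; animals bore transplantable tumors.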

[1] = dose: 12.5 mg/kg/injection, schedule: Q01DX009 (ip), vehicle: Klucel (hydroxypropylcellulose) (HPC)
[2] = dose: 50.0 mg/kg/injection, schedule: Q01DX009 (ip), vehicle: Klucel (hydroxypropylcellulose) (HPC)
[3] = dose: 100.0 mg/kg/injection, schedule: Q01DX009 (ip), vehicle: saline with Tween-80
[4] = dose: 200.0 mg/kg/injection, schedule: Q01DX009 (ip), vehicle: saline with Tween-80
[5] = dose: 2.5 mg/kg/injection, schedule: Q01DX009 (ip), vehicle: saline with Tween-80
[6] = dose: 5.0 mg/kg/injection, schedule: Q01DX009 (ip), vehicle: saline with Tween-80
[7] = dose: 100.0 mg/kg/injection, schedule: Q01DX009 (ip), vehicle: Klucel (hydroxypropylcellulose) (HPC)
[8] = dose: 400.0 mg/kg/injection, schedule: Q01DX009 (ip), vehicle: saline with Tween-80

Q: For `CCCCCCCCCCCCCCCCCC(=O)NN`, which T/C [1] is on record?
A: Its T/C is 103 % of control.

Q: What about the T/C (dose: 25.0 mg/kg/injection, schedule: Q01DX009 (ip), vehicle: Klucel (hydroxypropylcellulose) (HPC)) of the same compound?
A: The T/C was 98 % of control.

Q: And the T/C [2]?
A: The T/C was 105 % of control.

Q: What about the T/C (dose: 100.0 mg/kg/injection, schedule: Q01DX009 (ip), vehicle: carboxymethylcellulose (CMC)) of the same compound?
A: Its T/C is 94 % of control.

Q: For `CN(C)CCOc1ccccn1`, which T/C [3] is on record?
A: Its T/C is 94 % of control.

Q: And the T/C [4]?
A: Its T/C is 97 % of control.

Q: What does the source list for `CC(C)C1=CC2=CCC3C(C)(CN)CCCC3(C)C2CC1CCN` (centres undefined)?
A: T/C (dose: 1.25 mg/kg/injection, schedule: Q01DX009 (ip), vehicle: saline with Tween-80): 100 % of control; T/C (dose: 1.25 mg/kg/injection, schedule: Q04DX003 (ip), vehicle: saline with Tween-80): 104 % of control; T/C [5]: 99 % of control; T/C (dose: 2.5 mg/kg/injection, schedule: Q04DX003 (ip), vehicle: saline with Tween-80): 88 % of control; T/C [6]: 91 % of control; T/C (dose: 5.0 mg/kg/injection, schedule: Q04DX003 (ip), vehicle: saline with Tween-80): 90 % of control

Q: What does the source list for `COc1ccc2cc3[n+](cc2c1OC)CCc1cc2c(cc1-3)OCO2`?
A: T/C (dose: 1.5 mg/kg/injection, schedule: Q01DX009 (ip), vehicle: carboxymethylcellulose (CMC)): 105 % of control; T/C (dose: 2.5 mg/kg/injection, schedule: Q01DX009 (ip), vehicle: Klucel (hydroxypropylcellulose) (HPC)): 106 % of control; T/C [5]: 100 % of control; T/C (dose: 2.5 mg/kg/injection, schedule: Q02DX005 (ip), vehicle: Klucel (hydroxypropylcellulose) (HPC)): 109 % of control; T/C (dose: 3.0 mg/kg/injection, schedule: Q01DX009 (ip), vehicle: carboxymethylcellulose (CMC)): 96 % of control; T/C (dose: 3.12 mg/kg/injection, schedule: Q01DX009 (ip), vehicle: carboxymethylcellulose (CMC)): 95 % of control; T/C (dose: 5.0 mg/kg/injection, schedule: Q01DX009 (ip), vehicle: Klucel (hydroxypropylcellulose) (HPC)): 108 % of control; T/C [6]: 110 % of control; T/C (dose: 5.0 mg/kg/injection, schedule: Q02DX005 (ip), vehicle: Klucel (hydroxypropylcellulose) (HPC)): 110 % of control; T/C (dose: 6.25 mg/kg/injection, schedule: Q01DX009 (ip), vehicle: Klucel (hydroxypropylcellulose) (HPC)): 105 % of control; T/C (dose: 10.0 mg/kg/injection, schedule: Q01DX009 (ip), vehicle: saline with Tween-80): 102 % of control; T/C (dose: 10.0 mg/kg/injection, schedule: Q02DX005 (ip), vehicle: Klucel (hydroxypropylcellulose) (HPC)): 100 % of control; T/C [1]: 106 % of control

Q: For `CCOC(=O)C(=Cc1ccc(Cl)cc1)C(=O)OCC`, which T/C [1] is on record?
A: The T/C was 94 % of control.

Q: What about the T/C [2] of the same compound?
A: Its T/C is 94 % of control.

Q: What about the T/C [7] of the same compound?
A: The T/C was 89 % of control.

Q: For `COc1cc(C=Nc2cccc(C(F)(F)F)c2)ccc1O`, which T/C [7] is on record?
A: The T/C was 99 % of control.

Q: What about the T/C (dose: 200.0 mg/kg/injection, schedule: Q01DX009 (ip), vehicle: Klucel (hydroxypropylcellulose) (HPC)) of the same compound?
A: The T/C was 94 % of control.

Q: Which results are given for `CCC1(CC)CCC(Br)C(Br)C1` (centres undefined)?
A: T/C [3]: 95 % of control; T/C [4]: 105 % of control; T/C [8]: 102 % of control

Q: `Cc1cc(SCC(=O)c2ccc(Br)cc2)cc(C)[o+]1` was tested. Which T/C (dose: 6.25 mg/kg/injection, schedule: Q01DX009 (ip), vehicle: saline) did it give?
A: The T/C was 111 % of control and 122 % of control.

Q: What about the T/C (dose: 12.5 mg/kg/injection, schedule: Q01DX009 (ip), vehicle: saline) of the same compound?
A: The T/C was 112 % of control and 119 % of control.

Q: What about the T/C (dose: 25.0 mg/kg/injection, schedule: Q01DX009 (ip), vehicle: saline) of the same compound?
A: The T/C was 98 % of control and 118 % of control.

Q: And the T/C (dose: 50.0 mg/kg/injection, schedule: Q01DX009 (ip), vehicle: saline)?
A: Its T/C is 106 % of control.

Q: And the T/C (dose: 100.0 mg/kg/injection, schedule: Q01DX009 (ip), vehicle: saline)?
A: The T/C was 95 % of control.

Q: Which T/C (dose: 0.06 mg/kg/injection, schedule: Q01DX009 (ip), vehicle: Klucel (hydroxypropylcellulose) (HPC)) does the source give for `CCC(C(C)N1CC(=O)NC(=O)C1)N1CC(=O)NC(=O)C1` (centres undefined) here?
A: The T/C was 107 % of control.

Q: And the T/C (dose: 0.13 mg/kg/injection, schedule: Q01DX009 (ip), vehicle: Klucel (hydroxypropylcellulose) (HPC))?
A: The T/C was 108 % of control.

Q: What about the T/C (dose: 0.25 mg/kg/injection, schedule: Q01DX009 (ip), vehicle: Klucel (hydroxypropylcellulose) (HPC)) of the same compound?
A: The T/C was 109 % of control and 124 % of control.

Q: And the T/C (dose: 0.25 mg/kg/injection, schedule: Q04DX003 (ip), vehicle: Klucel (hydroxypropylcellulose) (HPC))?
A: The T/C was 105 % of control.

Q: What about the T/C (dose: 0.5 mg/kg/injection, schedule: Q01DX009 (ip), vehicle: Klucel (hydroxypropylcellulose) (HPC)) of the same compound?
A: Its T/C is 120 % of control.

Q: And the T/C (dose: 0.5 mg/kg/injection, schedule: Q04DX003 (ip), vehicle: Klucel (hydroxypropylcellulose) (HPC))?
A: Its T/C is 114 % of control.

Q: What about the T/C (dose: 1.0 mg/kg/injection, schedule: Q04DX003 (ip), vehicle: Klucel (hydroxypropylcellulose) (HPC)) of the same compound?
A: Its T/C is 115 % of control and 121 % of control.

Q: What about the T/C (dose: 8.0 mg/kg/injection, schedule: Q04DX003 (ip), vehicle: Klucel (hydroxypropylcellulose) (HPC)) of the same compound?
A: Its T/C is 156 % of control.

Q: `NC(=S)N/N=C1/c2cc(Cl)ccc2-c2c(NC(=O)C(Cl)Cl)cc(Cl)cc21` was tested. Which T/C [3] did it give?
A: The T/C was 95 % of control.

Q: And the T/C [4]?
A: The T/C was 93 % of control.

Q: What about the T/C [8] of the same compound?
A: The T/C was 86 % of control.
